In patent publication US11161854B2, “Indazolyl-spiro[2.2]pentane-carbonitrile derivatives as LRRK2 inhibitors, pharmaceutical compositions, and uses thereof” (Merck Sharp & Dohme Corp., priority 2017, dated 2021):

Target: GST-tagged truncated human mutant G2019S LRRK2 (Homo sapiens (Human), UniProt Q5S007, G2019S)
Assay: LRRK2 G2019S Km ATP LanthaScreen Assay
Type: biochemical
Details: 134 μM ATP (Km ATP); fluorescein-labeled LRRKtide substrate; mean IC50 values
Method: The IC50 values reported herein were measured as follows.
Biological Assay: LRRK2 Km ATP LanthaScreen™ Assay
The data presented for the Km ATP LanthaScreen™ Assay represents mean IC50 values based on several test results and may have reasonable deviations depending on the specific conditions and reagents used. Assays were performed in the presence of 134 μM ATP (Km ATP). Upon completion, the assay was stopped and phosphorylated substrate detected with a terbium (Tb)-labeled anti-pERM antibody (cat. no. PV4898). The compound dose response was prepared by diluting a 10 mM stock of compound to a maximum concentration of […] in 100% dimethylsulfoxide followed by custom fold serial dilution in dimethylsulfoxide nine times. Twenty nanoliters of each dilution was spotted via a Labcyte Echo onto a 384-well black-sided plate (Corning 3575) followed by 15 μl of a 1.25 nM enzyme solution in 1× assay buffer (50 mM Tris pH 8.5, 10 mM MgCl2, 0.01% Brij-35, 1 mM EGTA, 2 mM dithiothreitol, 0.05 mM sodium orthovanadate). Following a 15-minute incubation at room temperature, the kinase reaction was started with the addition of 5 μl of 400 nM fluorescein-labeled LRRKtide peptide substrate and 134 μM ATP solution in 1× assay buffer. The reaction was allowed to progress at ambient temperature for 90 minutes. The reaction was then stopped by the addition of 20 μl of TR-FRET Dilution Buffer (Life Technologies, Carlsbad, Calif.) containing 2 nM Tb-labeled anti-phospho LRRKtide antibody and 10 mM EDTA (Life Technologies, Carlsbad, Calif.). After an incubation of 1 hour at room temperature, the plate was read on an EnVision multimode plate reader (Perkin Elmer, Waltham, Mass.) with an excitation wavelength of 337 nm (Laser) and a reading emission at both 520 and 495 nm. […] Abase uses a 4 parameter (4P) logistic fit based on the Levenberg-Marquardt algorithm.

GST-tagged truncated human mutant G2019S LRRK2, sequence (Q5S007 970-2527 G2019S): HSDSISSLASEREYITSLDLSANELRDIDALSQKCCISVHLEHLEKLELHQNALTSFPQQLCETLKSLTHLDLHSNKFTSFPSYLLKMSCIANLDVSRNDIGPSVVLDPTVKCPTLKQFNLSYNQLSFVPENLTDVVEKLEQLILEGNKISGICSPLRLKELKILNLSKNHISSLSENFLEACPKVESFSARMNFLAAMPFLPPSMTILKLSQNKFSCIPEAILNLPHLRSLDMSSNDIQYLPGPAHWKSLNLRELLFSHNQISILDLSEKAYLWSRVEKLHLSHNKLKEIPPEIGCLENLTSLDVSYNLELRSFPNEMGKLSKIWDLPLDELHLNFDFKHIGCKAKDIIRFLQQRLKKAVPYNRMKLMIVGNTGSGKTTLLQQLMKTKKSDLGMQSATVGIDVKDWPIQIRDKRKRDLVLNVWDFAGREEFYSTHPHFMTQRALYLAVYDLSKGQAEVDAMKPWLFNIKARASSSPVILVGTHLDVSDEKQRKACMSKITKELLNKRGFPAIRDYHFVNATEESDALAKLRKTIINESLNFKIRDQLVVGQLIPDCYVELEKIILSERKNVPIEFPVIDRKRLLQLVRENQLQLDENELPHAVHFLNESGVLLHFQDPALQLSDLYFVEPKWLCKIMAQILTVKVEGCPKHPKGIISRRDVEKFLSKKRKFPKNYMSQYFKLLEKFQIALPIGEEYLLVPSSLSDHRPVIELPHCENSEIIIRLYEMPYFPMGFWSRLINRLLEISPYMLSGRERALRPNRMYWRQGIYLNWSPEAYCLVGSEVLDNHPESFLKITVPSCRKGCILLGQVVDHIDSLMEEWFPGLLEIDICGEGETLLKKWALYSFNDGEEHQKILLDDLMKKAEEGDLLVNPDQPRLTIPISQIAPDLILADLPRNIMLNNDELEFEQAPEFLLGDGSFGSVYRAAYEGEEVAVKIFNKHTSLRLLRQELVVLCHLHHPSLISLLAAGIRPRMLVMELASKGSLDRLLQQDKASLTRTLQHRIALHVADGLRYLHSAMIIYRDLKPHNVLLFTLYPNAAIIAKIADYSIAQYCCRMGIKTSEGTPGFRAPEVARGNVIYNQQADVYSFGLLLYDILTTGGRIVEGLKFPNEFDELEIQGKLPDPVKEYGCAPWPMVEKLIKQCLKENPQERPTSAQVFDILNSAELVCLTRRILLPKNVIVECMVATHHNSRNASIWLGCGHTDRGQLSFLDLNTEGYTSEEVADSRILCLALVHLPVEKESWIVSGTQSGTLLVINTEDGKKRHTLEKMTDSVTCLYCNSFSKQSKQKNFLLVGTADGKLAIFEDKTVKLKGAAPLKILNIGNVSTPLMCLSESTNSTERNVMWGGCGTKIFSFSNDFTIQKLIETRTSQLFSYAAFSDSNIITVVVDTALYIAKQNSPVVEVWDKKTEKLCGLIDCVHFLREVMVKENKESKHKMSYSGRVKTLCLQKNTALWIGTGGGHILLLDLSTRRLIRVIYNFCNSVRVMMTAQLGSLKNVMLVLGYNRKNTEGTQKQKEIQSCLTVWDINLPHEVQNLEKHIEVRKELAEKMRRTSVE

| Structure (SMILES) | IC50 [nM] |
| --- | --- |
| C[C@@H]1CN(c2cc(-n3ncc4ccc([C@@]5(C#N)CC56CC6)cc43)ncn2)CCN1C1CCOC1 (single isomer, unassigned) [Example 3.7-1] | 8 |
| COCc1nc(N2CCN(C3COC3)[C@H](C)C2)cc(-n2ncc3ccc([C@]4(C#N)CC45CC5)cc32)n1 [Example 4.11-1] | 1.3 |
| Cc1nc(N2CC3(CN(CC(F)(F)F)C3)C2)cc(-n2ncc3cnc(C4(C#N)CC45CC5)cc32)n1 (single isomer, unassigned) [Example 12.1, (S or R)-1-(1-(2-methyl-6-(6-(2,2,2-trifluoroethyl)-2,6-diazaspiro[3.3]heptan-2-yl)pyrimidin-4-yl)-1H-pyrazolo[4,3-c]pyridin-6-yl)spiro[2.2]pentane-1-carbonitrile] | 2.1 |
| CC1C(C(C)(C)O)CCN1c1cc(-n2ncc3ccc([C@]4(C#N)CC45CC5)cc32)ncn1 (single isomer, unassigned) [Example 3.5-6] | 4.9 |
| CC(C)(O)[C@H]1CN(c2cc(-n3ncc4ccc([C@]5(C#N)CC56CC6)cc43)ncn2)C[C@H]1F [Example 4.12-1] | 1.2 |
| COC1(C(C)(C)O)CCN(c2cc(-n3ncc4ccc([C@@]5(C#N)CC56CC6)cc43)ncn2)C1 (single isomer, unassigned) [Example 3.10-1] | 15.1 |
| Cc1nc(N2CCN3CCOC[C@@H]3C2)cc(-n2ncc3ccc([C@]4(C#N)CC45CC5)cc32)n1 [Example 4.17] | 0.6 |
| COC1(C(C)(C)O)CCN(c2cc(-n3ncc4ccc([C@]5(C#N)CC56CC6)cc43)ncn2)C1 (single isomer, unassigned) [Example 3.10-2] | 2.1 |
| CC(C)(O)[C@@H]1CCN(c2cc(-n3ncc4cnc(C5(C#N)CC56CC6)cc43)ccn2)C1 (single isomer, unassigned) [Example 6.6-2] | 3.4 |
| COCc1nc(N2CC3(C(C)(C)O)CC2C3)cc(-n2ncc3ccc(C4(C#N)CC45CC5)cc32)n1 (single isomer, unassigned) [Example 2.3-2, (R or S)-1-(1-(6-(4-(2-hydroxypropan-2-yl)-2-azabicyclo[2.1.1]hexan-2-yl)-2-(methoxymethyl)pyrimidin-4-yl)-1H-indazol-6-yl)spiro[2.2]pentane-1-carbonitrile] | 1.2 |
| C[C@H]1CN(c2cc(-n3ncc4ccc([C@]5(C#N)CC56CC6)cc43)cc(F)n2)CCN1C1COC1 [Example 6.4] | 6.8 |
| CC(C)(O)C1CN(c2cc(-n3ncc4ccc([C@]5(C#N)CC56CC6)cc43)ncn2)C1 [Example 4.4] | 0.6 |
| CC(C)(O)C12CC(C1)N(c1cc(-n3ncc4c(F)cc(C5(C#N)CC56CC6)cc43)ncn1)C2 (single isomer, unassigned) [Example 4.15-1] | 18.4 |
| Cc1nc(N2CC3(C(C)(C)O)CC2C3)cc(-n2ncc3ccc(C4(C#N)CC45CC5)cc32)n1 (single isomer, unassigned) [Example 2.4-2, 1-(1-(6-(4-(2-hydroxypropan-2-yl)-2-azabicyclo[2.1.1]hexan-2-yl)-2-methylpyrimidin-4-yl)-1H-indazol-6-yl)spiro[2.2]pentane-1-carbonitrile] | 0.6 |
| CCc1nc(C)cc(-n2ncc3ccc([C@]4(C#N)CC45CC5)cc32)n1 [Example 4.27] | 3.2 |
| CC(C)(O)[C@@H]1CCN(c2cc(-n3ncc4ccc(C5(C#N)CC56CC6)cc43)cnn2)C1 (single isomer, unassigned) [Example 10.4-1] | 18.7 |
| COCc1nc(N2CC3(C(C)(C)O)CC2C3)cc(-n2ncc3ccc(C4(C#N)CC45CC5)cc32)n1 (single isomer, unassigned) [Example 2.3-1, (R or S)-1-(1-(6-(4-(2-hydroxypropan-2-yl)-2-azabicyclo[2.1.1]hexan-2-yl)-2-(methoxymethyl)pyrimidin-4-yl)-1H-indazol-6-yl)spiro[2.2]pentane-1-carbonitrile] | 1.1 |
| CCc1cc(-n2ncc3ccc([C@]4(C#N)CC45CC5)cc32)nc(C)n1 [Example 4.26] | 3.1 |
| CC1CN(c2cc(-n3ncc4ccc([C@@]5(C#N)CC56CC6)cc43)ncn2)CC1C(C)(C)O (single isomer, unassigned) [Example 3.6-3] | 9.8 |
| Cc1cc(-n2ncc3ccc(C4(C#N)CC45CC5)cc32)cc(N2CC3(C(C)(C)O)CC2C3)n1 (single isomer, unassigned) [Example 7.3-1, (R or S)-1-(1-(2-(4-(2-hydroxypropan-2-yl)-2-azabicyclo[2.1.1]hexan-2-yl)-6-methylpyridin-4-yl)-1H-indazol-6-yl)spiro[2.2]pentane-1-carbonitrile] | 54.2 |
| CC1CN(c2cc(-n3ncc4ccc([C@]5(C#N)CC56CC6)cc43)ncn2)CC1C(C)(C)O (single isomer, unassigned) [Example 3.6-4] | 2.1 |

| Structure (SMILES) | IC50 [nM] |
| --- | --- |
| CS(=O)(=O)N1CCN(c2cc(-n3ncc4ccc([C@]5(C#N)CC56CC6)cc43)ncn2)CC1 [Example 4.7] | 1.3 |
| Cc1cc(-n2ncc3ccc([C@]4(C#N)CC45CC5)cc32)ncn1 [Example 11.7] | 7.4 |
| N#C[C@@]1(c2ccc3cnn(-c4cc(N5CCOC(CO)C5)ncn4)c3c2)CC12CC2 (stereo in doubt) [Example 4.9-1, 1-(1-(6-(2-(hydroxymethyl)morpholino)pyrimidin-4-yl)-1H-indazol-6-yl)spiro[2.2]pentane-1-carbonitrile] | 0.6 |
| CC1C(C(C)(C)O)CCN1c1cc(-n2ncc3ccc([C@@]4(C#N)CC45CC5)cc32)ncn1 (single isomer, unassigned) [Example 3.5-7] | 5.1 |
| CC1C(C(C)(C)O)CCN1c1cc(-n2ncc3ccc([C@]4(C#N)CC45CC5)cc32)ncn1 (single isomer, unassigned) [Example 3.5-8] | 1.1 |
| CNc1nc(N2CC3(C(C)(C)O)CC2C3)cc(-n2ncc3ccc(C4(C#N)CC45CC5)cc32)n1 (single isomer, unassigned) [Example 2.7-2, 1-(1-(6-(4-(2-hydroxypropan-2-yl)-2-azabicyclo[2.1.1]hexan-2-yl)-2-(methylamino)pyrimidin-4-yl)-1H-indazol-6-yl)spiro[2.2]pentane-1-carbonitrile] | 0.6 |
| CC1CN(c2cc(-n3ncc4ccc([C@@]5(C#N)CC56CC6)cc43)ncn2)CC1C(C)(C)O (single isomer, unassigned) [Example 3.6-1] | 2.2 |
| COCc1nc(N2C[C@@H](C)[C@@](C)(O)[C@@H](C)C2)cc(-n2ncc3ccc([C@]4(C#N)CC45CC5)cc32)n1 [Example 4.10] | 0.6 |
| N#C[C@]1(c2ccc3cnn(-c4cc(N5CC(O)C6(CC6)C5)ncn4)c3c2)CC12CC2 (single isomer, unassigned) [Example 3.11-1] | 6.7 |
| COc1nc(N2CC3(C(C)(C)O)CC2C3)cc(-n2ncc3ccc(C4(C#N)CC45CC5)cc32)n1 (single isomer, unassigned) [Example 2.5-1, 1-(1-(6-(4-(2-hydroxypropan-2-yl)-2-azabicyclo[2.1.1]hexan-2-yl)-2-methoxypyrimidin-4-yl)-1H-indazol-6-yl)spiro[2.2]pentane-1-carbonitrile] | 0.9 |
| CC(C)(O)C12CC(C1)N(c1cc(-n3ncc4ccc([C@]5(C#N)CC56CC6)cc43)cc(F)n1)C2 [Example 6.3] | 15 |
| C[C@H]1CN(c2cc(-n3ncc4ccc([C@@]5(C#N)CC56CC6)cc43)ncn2)CCN1C1CCOC1 (single isomer, unassigned) [Example 3.8-2] | 0.8 |
| CN1CCOC2(C1)CN(c1cc(-n3ncc4ccc([C@]5(C#N)CC56CC6)cc43)ncn1)C2 [Example 4.13] | 0.6 |
| Cc1cc(-n2ncc3ccc([C@]4(C#N)CC45CC5)cc32)nc(C2CC2)n1 [Example 4.23] | 3.2 |
| CC(C)(O)C1CN(c2cc(-n3ncc4ccc([C@]5(C#N)CC56CC6)cc43)ncn2)CCO1 (single isomer, unassigned) [Example 4.3-2, 1-(1-(6-(2-(2-hydroxypropan-2-yl)morpholino)pyrimidin-4-yl)-1H-indazol-6-yl)spiro[2.2]pentane-1-carbonitrile] | 0.6 |
| CC1(O)CN(c2cc(-n3ncc4ccc([C@]5(C#N)CC56CC6)cc43)ncn2)C1 [Example 4.2] | 1.3 |
| COCc1nc(N2CCN(C3COC3)[C@@H](C)C2)cc(-n2ncc3ccc([C@]4(C#N)CC45CC5)cc32)n1 [Example 4.11-2] | 0.7 |
| COC1(C(C)(C)O)CCN(c2cc(-n3ncc4ccc([C@]5(C#N)CC56CC6)cc43)ncn2)C1 (single isomer, unassigned) [Example 3.10-4] | 0.9 |
| COc1nc(N2C[C@@H](C)[C@@](C)(O)[C@@H](C)C2)cc(-n2ncc3ccc([C@]4(C#N)CC45CC5)cc32)n1 [Example 3.4] | 1.5 |
| CC1C(C(C)(C)O)CCN1c1cc(-n2ncc3ccc([C@@]4(C#N)CC45CC5)cc32)ncn1 (single isomer, unassigned) [Example 3.5-1] | 123 |
